Test results published in PMC12552596 (Nature Communications, 2025).

Biological target: T1, human glucose-6-phosphate transporter (G6PT) (Homo sapiens, UniProt O43826, W138F)
T1 sequence (O43826 1-429 W138F): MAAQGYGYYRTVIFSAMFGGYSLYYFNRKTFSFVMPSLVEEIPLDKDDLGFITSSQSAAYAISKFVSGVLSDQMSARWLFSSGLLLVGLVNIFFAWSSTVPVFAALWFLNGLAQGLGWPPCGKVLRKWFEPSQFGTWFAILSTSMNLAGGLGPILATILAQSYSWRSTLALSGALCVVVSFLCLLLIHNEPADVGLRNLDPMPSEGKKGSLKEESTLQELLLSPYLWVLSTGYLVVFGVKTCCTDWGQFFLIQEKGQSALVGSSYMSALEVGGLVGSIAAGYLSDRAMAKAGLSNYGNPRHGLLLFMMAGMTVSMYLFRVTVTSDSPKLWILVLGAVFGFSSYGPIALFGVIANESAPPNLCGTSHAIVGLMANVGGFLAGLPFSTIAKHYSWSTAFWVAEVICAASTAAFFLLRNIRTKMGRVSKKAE
T1 sequence (P35575 1-357 partner): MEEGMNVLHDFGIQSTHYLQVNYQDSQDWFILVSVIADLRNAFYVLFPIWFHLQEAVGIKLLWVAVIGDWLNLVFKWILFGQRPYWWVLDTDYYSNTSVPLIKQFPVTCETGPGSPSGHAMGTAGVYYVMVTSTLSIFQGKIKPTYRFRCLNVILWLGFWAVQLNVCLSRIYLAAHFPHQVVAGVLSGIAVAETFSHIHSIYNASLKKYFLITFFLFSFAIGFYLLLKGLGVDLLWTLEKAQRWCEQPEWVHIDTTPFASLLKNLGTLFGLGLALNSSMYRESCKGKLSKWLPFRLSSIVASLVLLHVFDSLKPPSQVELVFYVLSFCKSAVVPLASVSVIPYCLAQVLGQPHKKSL
Format: cell-based

- IC50: 523 ± 210 µM
Structure (SMILES): O=C(/C=C/c1ccc(O)c(O)c1)O[C@@H]1C[C@](O)(C(=O)O)C[C@@H](O)[C@H]1O [CHA, chlorogenic acid]
